Assay [1] deals with murine model of endotoxemia. In words: Enterocyte apoptosis (caspase 3) in murine model of endotoxemia. It counts as in vivo, mouse. As to conditions: 5 mg/kg LPS + 1 mg/kg CpG-DNA vs LPS, 3 hours. Here is the method:
(§1) (A) Control mice (injected with saline). (B) Mice injected with 5 mg/kg of LPS. (C) Mice injected with 5 mg/kg of LPS and 1 mg/kg of CpG. (D-G) Immunohistochemical staining of terminal ileum from newborn mice that were either breast fed (“control”) or induced to develop NEC (“NEC”). Sections were stained for caspase 3 as a marker of apoptosis and enterocyte loss; positive staining is indicated by a small arrowhead. (D) Control injected with saline. (E) NEC injected with saline. (F) Control injected with 1 mg/kg CpG-DNA daily for four days. (G) NEC injected with 1 mg/kg CpG-DNA daily for four days. (H) Bar graph summarizing results, showing percent apoptosis in terminal ileum as depicted in (D)-(G).
Induction of necrotizing enterocolitis. All mice were housed and cared for at Rangos Research Center, Children's Hospital of Pittsburgh. All experiments were approved by the Children's Hospital of Pittsburgh Animal Care Committee and the Institutional Review Board of the University of Pittsburgh (protocol 45-06). Swiss-Webster (CfW) and C57/B1-6 mice were obtained from Jackson Laboratories (Jackson Laboratory, Bar Harbor, Me.). Endotoxemia was induced in 2 week old C57/B16 or CpG1 (TLR9-mutant) mice by the intraperitoneal injection of LPS (Escherichia coli 0111:B4 purified by gel-filtration chromatography, >99% pure, 5 mg/kg, Sigma-Aldrich, St. Louis, Mo.). […]

Assay [2] has as its system experimental NEC in newborn mice. In words: Murine model of necrotizing enterocolitis (formula gavage + hypoxia), CpG treatment. Type of assay: in vivo, mouse. Here is the method:
FIG. 18A-D. Histology of intestines from mice that were (A) breast fed (control); (B) gavage fed+hypoxic to model necrotizing enterocolitis (NEC); (C) breast fed and treated with 500 μg/kg (approximately 10 μg/animal, intraperitoneally injected) CpG (control); (D) gavage fed+hypoxic to model NEC and treated with 500 μg/kg (approximately 10 μg/animal, intraperitoneally injected) CpG.
as §1
FIG. 20A-I. Newborn mice were either breast fed (“control”) or were induced to develop NEC (“NEC”). (A) Gross micrograph of intestine of a control mouse. (B) Gross micrograph of intestine of a control mouse treated with 1 mg/kg CpG-DNA daily for four days. (C) Gross micrograph of intestine of a NEC mouse. (D) Gross micrograph of intestine of a NEC mouse treated with 1 mg/kg CpG-DNA daily for four days. (E) Micrograph of histological section of intestine of a control mouse. (F) Micrograph of histological section of intestine of a control mouse treated with CpG. (G) Micrograph of histological section of intestine of a NEC mouse. (H) Micrograph of histological section of intestine of a NEC mouse treated with CpG. (I) Summary bar graph of the above results.
FIG. 16 presents a Western blot showing expression of TLR4 and TLR9 in control mice and mice modeling necrotizing enterocolitis (“NEC”). A substantial increase in the level of TLR4, and a decrease in TLR9, was observed. […]

Where [3] appears, read: NEC mice, 1 mg/kg CpG-DNA daily for four days.

Regarding 5′-TCCATGACGTTCCTGACGTT-3′ [CpG-DNA], the “apoptosis in enterocytes of terminal ileum (caspase 3)” value in assay [1] was “substantially reduced”. Besides, in assay [2] (setting [3]), the “NEC pathology (gross and histological)” value is reported as “substantial inhibition of the NEC pathology”; the “apoptosis in terminal ileum (caspase 3)” value is listed as “substantially reduced apoptosis”. For the same substance, the “severity of experimental NEC” value in assay [2] (wild-type TLR4 mice, 500 μg/kg CpG intraperitoneally) is “limit the severity of experimental NEC”.

For the origin of these results see patent US8518903B2, “Use of toll-like receptor-9 agonists” (University of Pittsburgh—of the Commonwealth System of …, priority 2007, dated 2013).
